Earlier results in PMC5245897 (PLoS ONE, 2017).

Test system: GLP-1 receptor
Design: method as in PMID 8396143
Conditions: GLP-1 receptor antagonist

For Exendin(9–39), the “GLP-1 receptor binding (in words)” value is listed as “GLP-1 receptor antagonist binding with high affinity”.
